Values after ≈ are worked out from the molar mass of the structure shown. Active and inactive are the calls of the source. The calls are words filed in the database; no cut-off is given here.

The record followed here is ChEMBL document CHEMBL3244225, “Synthesis and biological activity of some vinyl-substituted 2-nitroimidazoles” (J Med Chem, 1977).

The subject of data set [1] is Staphylococcus aureus. In words: Antimicrobial activity against Staphylococcus aureus Tour by tube dilution method. The format is functional.
A further data set concerns Streptococcus pyogenes. In words: Antimicrobial activity against Streptococcus haemolyticus C 203 by tube dilution method. The class given is functional.
For another data set, the system named is Streptococcus pneumoniae. In words: Antimicrobial activity against Diplococcus pneumoniae UC41 by tube dilution method. The format is functional.
A further data set concerns Clostridium perfringens. In words: Antimicrobial activity against Clostridium perfringens ISS 30543 by tube dilution method. The class given is functional.
The next data set deals with Proteus vulgaris. In words: Antimicrobial activity against Proteus vulgaris X19 H ATCC 881 by tube dilution method. The format is functional.
Data set [2] has as its system Escherichia coli. In words: Antimicrobial activity against Escherichia coli SKF 12140 by tube dilution method. The format is functional.
The next data set deals with Shigella sonnei. In words: Antimicrobial activity against Shigella sonnei ATCC 9290 by tube dilution method. The format is functional.
For the next data set, the system named is Salmonella typhimurium. In words: Antimicrobial activity against Salmonella typhimurium Kh by tube dilution method. The format is functional, Salmonella enterica subsp. enterica serovar Typhimurium. To be noted: Salmonella enterica.
For the next data set, the system named is Klebsiella pneumoniae. In words: Antimicrobial activity against Klebsiella pneumoniae I.S.M. by tube dilution method. The class given is functional.
The test system of another data set is Pseudomonas aeruginosa. In words: Antimicrobial activity against Pseudomonas aeruginosa ATCC 10145 by tube dilution method. The format is functional.
The subject of a further data set is Candida albicans. In words: Antimicrobial activity against Candida albicans SKF 2270 by tube dilution method. The class given is functional.
Data set [3] concerns Trichophyton mentagrophytes. In words: Antimicrobial activity against Trichophyton mentagrophytes SKF 17410 by tube dilution method. The class given is functional.
For data set [4], the system named is Mycobacterium tuberculosis. In words: Antimicrobial activity against Mycobacterium tuberculosis ATCC 9360 by tube dilution method. The class given is functional.
Data set [5] deals with Mycoplasmoides gallisepticum. In words: Antimicrobial activity against Mycoplasma gallisepticum H21 C.Z.B. by tube dilution method. The class given is functional.
The test system of data set [6] is Trichomonas vaginalis. In words: Trichomonastatic activity against Trichomonas vaginalis by tube dilution method. The class given is functional.
For data set [7], the system named is Trichomonas vaginalis. In words: Trichomonacidal activity against Trichomonas vaginalis by tube dilution method. The class given is functional.
Data set [8] relates to Escherichia coli. In words: Antimicrobial activity against Escherichia coli infected in mouse at 200 mg/kg, sc. The format is functional, organism-based. More on the design: dose 200 mg/kg.
Data set [9] concerns Trichomonas vaginalis. In words: Ratio of metronidazole ED50 to compound ED50 for Trichomonas vaginalis infected in sc dosed mouse. The class given is functional.
The nature of data set [10]: Toxicity in po dosed mouse infected with Trichomonas vaginalis. The format is organism-based. The following applies: in vivo.
The test system of data set [11] is Staphylococcus aureus. In words: Antimicrobial activity against Staphylococcus aureus infected in mouse at 200 mg/kg, po. The format is functional, organism-based. More on the design: dose 200 mg/kg.
In data set [12] the test system is Staphylococcus aureus. In words: Antimicrobial activity against Staphylococcus aureus infected in mouse at 200 mg/kg, sc. The class given is functional, organism-based. More on the design: dose 200 mg/kg.
A short description of data set [13]: Toxicity in po dosed mouse infected with Escherichia coli. The format is organism-based. The following applies: in vivo.
Data set [14] can be described thus: Toxicity in sc dosed mouse infected with Escherichia coli. The format is organism-based. To be noted: in vivo.
For data set [15], the system named is Escherichia coli. In words: Antimicrobial activity against Escherichia coli infected in mouse at 250 mg/kg, po. The class given is functional, organism-based. On the set-up: dose 250 mg/kg.
Data set [16] relates to Escherichia coli. In words: Antimicrobial activity against Escherichia coli infected in mouse at 250 mg/kg, sc. The format is functional, organism-based. On the set-up: dose 250 mg/kg.

One may read the MIC as the least concentration at which growth counts as inhibited. High values mean a less susceptible organism, low ones a more susceptible organism. For orientation: LD50 means the dose at which mortality reaches 50%. Lower therefore signals a more toxic substance. On to `CC(=O)/C=C/c1cnc([N+](=O)[O-])n1C`, for which the MIC came to 50 µg/mL (≈ 256 µM) against Staphylococcus aureus [1]; 100 µg/mL (≈ 512 µM) against Streptococcus pyogenes; 100 µg/mL (≈ 512 µM) in the data set with Streptococcus pneumoniae; 5 µg/mL (≈ 25.6 µM) with Clostridium perfringens; 100 µg/mL (≈ 512 µM) in the data set with Proteus vulgaris; 20 µg/mL (≈ 102 µM) against Escherichia coli [2]. The MIC with Shigella sonnei is 50 µg/mL (≈ 256 µM); against Salmonella typhimurium, 50 µg/mL (≈ 256 µM); against Klebsiella pneumoniae, 100 µg/mL (≈ 512 µM); with Pseudomonas aeruginosa it was above 100 µg/mL; in the data set on Candida albicans, above 100 µg/mL; in [3], 100 µg/mL (≈ 512 µM). The MIC turned out to be 20 µg/mL (≈ 102 µM) in data set [4], 50 µg/mL (≈ 256 µM) in [5], 10 µg/mL (≈ 51.2 µM) against Trichomonas vaginalis [6] and 50 µg/mL (≈ 256 µM) against Trichomonas vaginalis [7]. Further, the outcome in the data set on Escherichia coli [8] was inactive. Besides, the “Ratio ED50” value in the data set with Trichomonas vaginalis [9] worked out at 1.1. The LD50 in data set [10] was 800 mg/kg.
In the case of `Cn1c(/C=C/C=[N+](/C)[O-])cnc1[N+](=O)[O-]`, the MIC in the data set on Staphylococcus aureus [1] was 10 µg/mL (≈ 47.6 µM); against Streptococcus pyogenes, 20 µg/mL (≈ 95.2 µM); in the data set on Streptococcus pneumoniae it was 100 µg/mL (≈ 476 µM); against Clostridium perfringens, 5 µg/mL (≈ 23.8 µM); against Proteus vulgaris, above 100 µg/mL; in the data set with Escherichia coli [2] it was 50 µg/mL (≈ 238 µM). The MIC was 20 µg/mL (≈ 95.2 µM) in the data set with Shigella sonnei; 20 µg/mL (≈ 95.2 µM) with Salmonella typhimurium; 20 µg/mL (≈ 95.2 µM) in the data set on Klebsiella pneumoniae; above 100 µg/mL against Pseudomonas aeruginosa; above 100 µg/mL in the data set on Candida albicans; above 100 µg/mL in data set [3]. The MIC in data set [4] is 100 µg/mL (≈ 476 µM); in [5], 10 µg/mL (≈ 47.6 µM); against Trichomonas vaginalis [6] it was above 100 µg/mL. In addition, the outcome with Staphylococcus aureus [11] and in the data set with Staphylococcus aureus [12] was Active. Further, the LD50 in data set [13] and in data set [14] was 700 mg/kg throughout.
`CC(/C=C/c1cnc([N+](=O)[O-])n1C)=[N+](\C)[O-]`: the MIC with Staphylococcus aureus [1] was determined as 50 µg/mL (≈ 223 µM); with Streptococcus pyogenes, 100 µg/mL (≈ 446 µM); with Streptococcus pneumoniae, 50 µg/mL (≈ 223 µM); against Clostridium perfringens, 10 µg/mL (≈ 44.6 µM); against Proteus vulgaris, 100 µg/mL (≈ 446 µM); against Escherichia coli [2] it was 50 µg/mL (≈ 223 µM). Also, the MIC is 100 µg/mL (≈ 446 µM) against Shigella sonnei; 100 µg/mL (≈ 446 µM) in the data set with Salmonella typhimurium; 100 µg/mL (≈ 446 µM) in the data set on Klebsiella pneumoniae; above 100 µg/mL against Pseudomonas aeruginosa; above 100 µg/mL in the data set on Candida albicans; above 100 µg/mL in data set [3]. Also, the MIC in data set [4] is above 100 µg/mL; in [5], 50 µg/mL (≈ 223 µM); in the data set with Trichomonas vaginalis [6], 50 µg/mL (≈ 223 µM); against Trichomonas vaginalis [7] it was 100 µg/mL (≈ 446 µM). For the same molecule, the outcome with Escherichia coli [15] and in the data set with Escherichia coli [16] was inactive. The LD50 in data set [13], in data set [14] and in data set [10] was 700 mg/kg each time. Moreover, in the data set on Trichomonas vaginalis [9], the “Ratio ED50” value came to 2.6.
